The source of these data is BindingDB's records for doi:10.1016/j.bmcl.2008.12.083 (Merck Research Laboratories, 2009).

The target of one experiment is Histone deacetylase 3 (Homo sapiens, UniProt O15379). Kind of experiment: HDAC Activity Assay. The note with it: 25 °C. Here is the method:
(§1) The Fluor-de-Lys HDAC activity assay kit (Biomol) was used. Purified recombinant HDAC enzyme was incubated with Fluor-de-Lys substrate in the presence of test compounds. Fluor-de-Lys Developer was then added, and the mixture was incubated for another 10 min at room temperature. Fluorescence was measured using a fluorescent plate reader, with excitation 360 nm and emission 460 nm.

Another experiment concerns the target Histone deacetylase 1 (Homo sapiens, UniProt Q13547). Kind of experiment: HDAC Activity Assay. The settings on record: pH 8; 37 °C. Here is the method: as §1

Histone deacetylase 3, sequence (O15379 whole entry): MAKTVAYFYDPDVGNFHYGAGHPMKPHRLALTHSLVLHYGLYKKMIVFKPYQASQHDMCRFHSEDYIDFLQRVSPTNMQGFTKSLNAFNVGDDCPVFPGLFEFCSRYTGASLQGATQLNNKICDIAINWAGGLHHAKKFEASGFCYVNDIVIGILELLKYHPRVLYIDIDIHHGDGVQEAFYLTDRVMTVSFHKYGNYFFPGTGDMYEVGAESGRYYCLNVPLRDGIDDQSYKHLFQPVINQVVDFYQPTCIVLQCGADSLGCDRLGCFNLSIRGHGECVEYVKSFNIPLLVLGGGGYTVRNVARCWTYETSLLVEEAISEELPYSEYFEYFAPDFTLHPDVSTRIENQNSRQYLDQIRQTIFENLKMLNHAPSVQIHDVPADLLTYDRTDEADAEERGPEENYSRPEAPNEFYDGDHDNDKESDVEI
Histone deacetylase 1, sequence (Q13547 whole entry): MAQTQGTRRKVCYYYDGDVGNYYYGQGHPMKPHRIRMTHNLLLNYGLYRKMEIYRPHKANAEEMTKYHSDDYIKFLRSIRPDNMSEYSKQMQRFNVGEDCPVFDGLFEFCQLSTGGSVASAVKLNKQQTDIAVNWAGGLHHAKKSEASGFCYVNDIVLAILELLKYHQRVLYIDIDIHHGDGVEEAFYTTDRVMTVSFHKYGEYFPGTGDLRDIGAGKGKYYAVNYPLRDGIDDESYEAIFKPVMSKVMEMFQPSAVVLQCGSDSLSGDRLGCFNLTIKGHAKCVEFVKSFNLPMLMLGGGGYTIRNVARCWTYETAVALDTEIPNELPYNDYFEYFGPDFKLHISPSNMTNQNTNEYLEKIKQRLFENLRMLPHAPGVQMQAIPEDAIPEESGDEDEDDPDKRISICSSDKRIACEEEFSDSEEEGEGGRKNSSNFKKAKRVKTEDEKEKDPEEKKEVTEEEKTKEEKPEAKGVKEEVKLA

As usually defined, the IC50 is the concentration needed to halve the response being measured. The low end stands for inhibition by little substance, the high end for a need for much substance. With `Nc1ccc(-c2ccc(F)cc2)cc1NC(=O)c1ccc(CN2CCC3(CCCN3)CC2)cc1` [N-[2-amino-5-(4-fluorophenyl)phenyl]-4-{1,8-diazaspiro[4.5]decan-8-ylmethyl}benzamide], the IC50 at Histone deacetylase 3 was found to be 4.8 µM; at Histone deacetylase 1 it was 0.013 µM.

Consider `Cc1c(CNCc2ccc(C(=O)Nc3cc(-c4ccccc4)ccc3N)cc2)cnn1C` [N-(2-amino-5-phenylphenyl)-4-({[(1,5-dimethyl-1H-pyrazol-4-yl)methyl]amino}methyl)benzamide], for which, on Histone deacetylase 3, the IC50 amounted to 19.3 µM. That is a double-digit micromolar value.
